The results in this text go back to US10479784B2, “Substituted pyrazin-2-amines as inhibitors of ATR kinase” (Vertex Pharmaceuticals Incorporated, priority 2008, dated 2019).

A value given as a limit tells only on which side of the number the result lay.

For the assay, the target named is full-length ATR (Homo sapiens (Human), UniProt Q13535). Nature of the assay: ATR Inhibition Assay (radioactive-phosphate incorporation). Format: biochemical. Conditions: read-out: ATR Ki. The gist of the method:
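Full-length human ATR (5 nM) was assayed at 25 °C in 50 mM Tris/HCl pH 7.5, 10 mM MgCl2, 1 mM DTT, with 10 μM [γ-33P]ATP and 800 μM peptide, after 10-min compound preincubation. Reactions were stopped after 24 h, captured on phosphocellulose and counted; Ki(app) came from non-linear regression of initial rates.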

Chain of full-length ATR (Q13535 whole entry): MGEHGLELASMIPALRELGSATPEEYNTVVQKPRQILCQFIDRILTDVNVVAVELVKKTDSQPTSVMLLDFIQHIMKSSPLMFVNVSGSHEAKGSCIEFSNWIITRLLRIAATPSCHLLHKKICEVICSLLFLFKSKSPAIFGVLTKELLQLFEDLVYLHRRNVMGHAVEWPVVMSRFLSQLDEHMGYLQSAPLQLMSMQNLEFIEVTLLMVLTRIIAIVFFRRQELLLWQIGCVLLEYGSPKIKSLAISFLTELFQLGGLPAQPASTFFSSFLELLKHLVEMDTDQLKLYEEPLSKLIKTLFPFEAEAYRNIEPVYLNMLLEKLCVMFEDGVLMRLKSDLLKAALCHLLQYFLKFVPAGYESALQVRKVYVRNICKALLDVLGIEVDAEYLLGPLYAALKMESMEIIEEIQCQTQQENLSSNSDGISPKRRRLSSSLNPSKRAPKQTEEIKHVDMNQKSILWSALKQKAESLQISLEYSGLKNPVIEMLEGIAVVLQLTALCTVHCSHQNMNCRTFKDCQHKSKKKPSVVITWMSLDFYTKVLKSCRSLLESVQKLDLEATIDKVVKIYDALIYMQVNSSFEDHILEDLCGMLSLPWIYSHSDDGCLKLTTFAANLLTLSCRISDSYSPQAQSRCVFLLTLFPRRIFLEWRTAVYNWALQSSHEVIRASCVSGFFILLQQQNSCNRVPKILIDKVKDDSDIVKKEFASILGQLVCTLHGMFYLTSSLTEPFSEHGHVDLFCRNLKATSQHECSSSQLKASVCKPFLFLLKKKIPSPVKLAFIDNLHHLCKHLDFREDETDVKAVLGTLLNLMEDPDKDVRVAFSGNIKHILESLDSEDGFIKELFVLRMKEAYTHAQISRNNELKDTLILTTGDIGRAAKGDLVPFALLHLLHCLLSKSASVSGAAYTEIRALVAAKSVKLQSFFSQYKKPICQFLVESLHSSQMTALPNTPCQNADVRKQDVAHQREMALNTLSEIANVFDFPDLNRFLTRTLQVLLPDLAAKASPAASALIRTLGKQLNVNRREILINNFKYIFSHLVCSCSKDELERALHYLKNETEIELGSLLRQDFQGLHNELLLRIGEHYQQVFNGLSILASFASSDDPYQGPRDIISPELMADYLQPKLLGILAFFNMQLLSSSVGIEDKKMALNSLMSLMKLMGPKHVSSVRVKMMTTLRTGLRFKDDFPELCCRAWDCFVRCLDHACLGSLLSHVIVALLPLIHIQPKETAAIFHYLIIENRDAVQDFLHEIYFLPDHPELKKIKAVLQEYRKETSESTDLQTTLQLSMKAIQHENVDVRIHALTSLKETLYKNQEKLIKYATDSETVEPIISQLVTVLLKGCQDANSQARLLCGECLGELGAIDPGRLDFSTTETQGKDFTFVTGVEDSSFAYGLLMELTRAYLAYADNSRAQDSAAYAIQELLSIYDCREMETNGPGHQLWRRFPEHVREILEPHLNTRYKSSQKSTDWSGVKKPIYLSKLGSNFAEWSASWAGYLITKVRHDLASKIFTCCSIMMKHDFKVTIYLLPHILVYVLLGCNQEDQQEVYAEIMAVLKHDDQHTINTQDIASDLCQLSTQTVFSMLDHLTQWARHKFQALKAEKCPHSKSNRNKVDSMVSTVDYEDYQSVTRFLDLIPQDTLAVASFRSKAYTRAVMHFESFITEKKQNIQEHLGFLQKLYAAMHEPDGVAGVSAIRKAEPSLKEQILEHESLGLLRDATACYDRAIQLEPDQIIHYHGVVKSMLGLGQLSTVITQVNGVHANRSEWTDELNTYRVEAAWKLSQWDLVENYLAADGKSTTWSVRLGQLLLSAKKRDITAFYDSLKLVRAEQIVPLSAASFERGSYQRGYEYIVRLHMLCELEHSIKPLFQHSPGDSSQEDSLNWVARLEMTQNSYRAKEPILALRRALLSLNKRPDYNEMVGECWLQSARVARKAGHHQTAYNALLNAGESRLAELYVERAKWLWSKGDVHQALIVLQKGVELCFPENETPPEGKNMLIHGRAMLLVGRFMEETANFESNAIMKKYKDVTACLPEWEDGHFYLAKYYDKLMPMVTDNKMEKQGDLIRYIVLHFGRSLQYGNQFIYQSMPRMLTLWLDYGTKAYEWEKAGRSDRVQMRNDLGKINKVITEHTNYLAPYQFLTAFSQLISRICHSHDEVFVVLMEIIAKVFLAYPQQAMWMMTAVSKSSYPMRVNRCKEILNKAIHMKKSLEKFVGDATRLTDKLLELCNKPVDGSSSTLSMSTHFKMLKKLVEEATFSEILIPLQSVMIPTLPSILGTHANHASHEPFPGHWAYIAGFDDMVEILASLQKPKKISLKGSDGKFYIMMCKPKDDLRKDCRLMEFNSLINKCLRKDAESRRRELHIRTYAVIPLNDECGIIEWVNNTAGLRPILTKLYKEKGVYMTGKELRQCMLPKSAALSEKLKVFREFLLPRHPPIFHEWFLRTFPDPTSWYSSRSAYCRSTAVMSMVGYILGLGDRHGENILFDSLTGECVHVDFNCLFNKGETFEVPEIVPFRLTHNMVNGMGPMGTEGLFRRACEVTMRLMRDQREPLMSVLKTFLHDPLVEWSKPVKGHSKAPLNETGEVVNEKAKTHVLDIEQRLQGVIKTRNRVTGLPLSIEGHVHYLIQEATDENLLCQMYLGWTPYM

As for `CS(=O)(=O)c1ccc(-c2cnc(N)c(-c3nc4ccc(Cl)cc4[nH]3)n2)cc1` [Compound I-114, 3-(6-chloro-1H-benzo[d]imidazol-2-yl)-5-(4-(methylsulfonyl)phenyl) pyrazin-2-amine], the Ki was at most 10 nM. For `CC(C)S(=O)(=O)c1ccc(-c2cnc(N)c(-c3nnc(-c4ccc(C#N)cc4)o3)n2)cc1` [IA-273, 4-[5-[3-amino-6-(4-isopropylsulfonylphenyl)pyrazin-2-yl]-1,3,4-oxadiazol-2-yl]benzonitrile] the value was 10 to 100 nM; for `CC(C)S(=O)(=O)c1ccc(-c2cnc(N)c(-c3nnc(C(=O)N4CC(N)C4)o3)n2)cc1` [IA-120, (3-aminoazetidin-1-yl)-[5-[3-amino-6-(4-isopropylsulfonylphenyl)pyrazin-2-yl]-1,3,4-oxadiazol-2-yl]methanone], 10 to 100 nM. As for `CNCc1ccc(-c2nnc(-c3nc(-c4ccc(S(=O)(=O)C(C)C)cc4)cnc3N)o2)cc1O` [IA-320, 5-[5-[3-amino-6-(4-isopropylsulfonylphenyl)pyrazin-2-yl]-1,3,4-oxadiazol-2-yl]-2-(methylaminomethyl)phenol], the inhibition constant (Ki) is at most 10 nM. Regarding `CC(=O)Nc1ccc(-c2cnc(N)c(-c3nnc(-c4ccccc4)o3)n2)cc1` [IA-247, N-[4-[5-amino-6-(5-phenyl-1,3,4-oxadiazol-2-yl)pyrazin-2-yl]phenyl]acetamide], the Ki fell in the range of 10 to 100 nM. As for `Nc1ncc(-c2ccn[nH]2)nc1C(=O)Nc1ccccc1` [Compound I-31, 3-amino-N-phenyl-6-(1H-pyrazol-5-yl)pyrazine-2-carboxamide], the Ki is 10 to 100 nM. For `Nc1ncc(-c2cccnc2)nc1C(=O)Nc1ccc2cc[nH]c2c1` [Compound I-105, 3-amino-N-(1H-indol-6-yl)-6-(pyridin-3-yl)pyrazine-2-carboxamide] the value was 10 to 100 nM; for `COc1cccc(NC(=O)c2nc(-c3cccnc3)cnc2N)c1` [Compound I-86, 3-amino-N-(3-methoxyphenyl)-6-(pyridin-3-yl)pyrazine-2-carboxamide], 10 to 100 nM; for `COc1ccccc1NC(=O)c1nc(-c2ccoc2)cnc1N` [Compound I-37, 3-amino-6-(furan-3-yl)-N-(2-methoxyphenyl)pyrazine-2-carboxamide], 10 to 100 nM. For `N#CCCN1CCN(C(=O)c2ccc(-c3cnc(N)c(C(=O)Nc4ccccc4)n3)cc2)CC1` [Compound I-81, 3-amino-6-(4-(4-(2-cyanoethyl)piperazine-1-carbonyl)phenyl)-N-phenylpyrazine-2-carboxamide], the Ki is at most 10 nM.

In the case of `Nc1ncc(-c2ccc(N3CCOCC3)nc2)nc1-c1nc2ccccc2[nH]1` [Compound I-135, 3-(1H-benzo[d]imidazol-2-yl)-5-(6-morpholinopyridin-3-yl)pyrazin-2-amine], the inhibitory constant (Ki) is 100 to 5000 nM.

For `CC(C)S(=O)(=O)c1ccc(-c2cnc(N)c(-c3nnc(-c4ccc(C(=N)N)cc4)o3)n2)cc1` [IA-70, 4-[5-[3-amino-6-(4-isopropylsulfonylphenyl)pyrazin-2-yl]-1,3,4-oxadiazol-2-yl]benzamidine], the Ki is at most 10 nM. As for `CC(C)S(=O)(=O)c1ccc(-c2cnc(N)c(-c3nnc(N4CCC(N)C4)o3)n2)cc1` (stereo not drawn) [IA-188, 3-[5-(3-aminopyrrolidin-1-yl)-1,3,4-oxadiazol-2-yl]-5-(4-isopropylsulfonylphenyl)pyrazin-2-amine], the figure is 100 to 5000 nM; as for `CNCc1ccc(-c2cc(-c3nc(-c4ccc(S(=O)(=O)C(C)C)cc4)cnc3N)on2)cc1Cl` [IIA-13, 3-[3-[3-chloro-4-(methylaminomethyl)phenyl]isoxazol-5-yl]-5-(4-isopropylsulfonylphenyl)pyrazin-2-amine], at most 10 nM; as for `Nc1ncc(-c2ccc(N3CCOCC3)nc2)nc1-c1nnc(-c2ccccc2)o1` [IA-283, 5-(6-morpholino-3-pyridyl)-3-(5-phenyl-1,3,4-oxadiazol-2-yl)pyrazin-2-amine], 10 to 100 nM. As to `Cc1ccc(-c2nnc(-c3nc(-c4ccc(C(=O)N(C)C)cc4)cnc3N)o2)cc1` [IA-263, 4-[5-amino-6-[5-(p-tolyl)-1,3,4-oxadiazol-2-yl]pyrazin-2-yl]-N,N-dimethyl-benzamide], the Ki is 10 to 100 nM.

On to `NC(=O)C1CCN(C(=O)c2ccc(-c3cnc(N)c(C(=O)Nc4ccccc4)n3)cc2)CC1` [Compound I-77, 3-amino-6-(4-(4-carbamoylpiperidine-1-carbonyl)phenyl)-N-phenylpyrazine-2-carboxamide], for which the Ki was 10 to 100 nM.

Turning to `COCCN(C)C(=O)c1cccc(-c2cnc(N)c(C(=O)Nc3ccccc3)n2)c1` [Compound I-67, 3-amino-6-(3-((2-methoxyethyl)(methyl)carbamoyl)phenyl)-N-phenylpyrazine-2-carboxamide], the inhibition constant (Ki) is 10 to 100 nM. As to `COC(=O)c1ccccc1-c1cnc(N)c(-c2nnc(-c3ccccc3)o2)n1` [IA-105, methyl 2-[5-amino-6-(5-phenyl-1,3,4-oxadiazol-2-yl)pyrazin-2-yl]benzoate], the inhibitory constant (Ki) was 100 to 5000 nM. As for `Cc1ccsc1-c1nnc(-c2nc(-c3ccc(C(=O)N(C)C)cc3)cnc2N)o1` [IA-167, 4-[5-amino-6-[5-(3-methyl-2-thienyl)-1,3,4-oxadiazol-2-yl]pyrazin-2-yl]-N,N-dimethyl-benzamide], the figure is at most 10 nM; as for `CC(C)S(=O)(=O)c1ccc(-c2cnc(N)c(-c3nnc(N4CCC(N)CC4)o3)n2)cc1` [IA-109, 3-[5-(4-amino-1-piperidyl)-1,3,4-oxadiazol-2-yl]-5-(4-isopropylsulfonylphenyl)pyrazin-2-amine], 100 to 5000 nM. For `CN(C)CCNc1nccc(-c2cnc(N)c(-c3nnc(-c4ccccc4)o3)n2)c1C#N` [IA-209, 4-[5-amino-6-(5-phenyl-1,3,4-oxadiazol-2-yl)pyrazin-2-yl]-2-(2-dimethylaminoethylamino)pyridine-3-carbonitrile], the Ki was in the range of 10 to 100 nM.

For `Cc1ccccc1-c1cnc(N)c(C(=O)Nc2ccccc2)n1` [Compound I-11, 3-amino-N-phenyl-6-o-tolylpyrazine-2-carboxamide], the inhibition constant Ki was in the range of 100 to 5000 nM. Turning to `CN(C)C(=O)c1ccc(-c2cnc(N)c(-c3nnc(-c4ccccc4)s3)n2)c(C#N)c1` [IVA-1, 4-[5-amino-6-(5-phenyl-1,3,4-thiadiazol-2-yl)pyrazin-2-yl]-3-cyano-N,N-dimethyl-benzamide], the Ki is at most 10 nM. As to `CNc1nnc(-c2nc(-c3ccc(C(=O)N(C)C)cc3)cnc2N)o1` [IA-33], the inhibition constant Ki fell in the range of 100 to 5000 nM.

In the case of `NC(=O)Cc1ccccc1-c1cnc(N)c(-c2nnc(-c3ccccc3)o2)n1` [IA-266, 2-[2-[5-amino-6-(5-phenyl-1,3,4-oxadiazol-2-yl)pyrazin-2-yl]phenyl]acetamide], the inhibition constant Ki lay within 10 to 100 nM.

As to `N#Cc1cc(C(=O)N2CCCNCC2)ccc1-c1cnc(N)c(-c2nnc(-c3cccs3)o2)n1` [IA-152, 2-(5-amino-6-(5-(thiophen-2-yl)-1,3,4-oxadiazol-2-yl)pyrazin-2-yl)-5-(1,4-diazepane-1-carbonyl)benzonitrile], the Ki was at most 10 nM. Regarding `CN(C)C(=O)c1ccc(-c2cnc(N)c(-c3nnc(N(C)c4ccccc4)o3)n2)cc1` [IA-250, 4-[5-amino-6-[5-(N-methylanilino)-1,3,4-oxadiazol-2-yl]pyrazin-2-yl]-N,N-dimethyl-benzamide], the inhibition constant (Ki) is 100 to 5000 nM. As for `Nc1ncc(-c2cccc3cccnc23)nc1-c1nnc(-c2ccccc2)o1` [IA-216, 3-(5-phenyl-1,3,4-oxadiazol-2-yl)-5-(8-quinolyl)pyrazin-2-amine], the inhibition constant Ki was in the range of 100 to 5000 nM. In the case of `CNCc1csc(-c2nnc(-c3nc(-c4ccc(S(=O)(=O)C(C)C)cc4)cnc3N)o2)c1` [IA-226, 5-(4-isopropylsulfonylphenyl)-3-[5-[4-(methylaminomethyl)-2-thienyl]-1,3,4-oxadiazol-2-yl]pyrazin-2-amine], the inhibitory constant (Ki) was at most 10 nM. As to `CC(C)S(=O)(=O)c1ccc(-c2cnc(N)c(-c3nnc(CCCN)o3)n2)cc1` [IA-91, 3-[5-(3-aminopropyl)-1,3,4-oxadiazol-2-yl]-5-(4-isopropylsulfonylphenyl)pyrazin-2-amine], the Ki is 100 to 5000 nM. Consider `CC(C)S(=O)(=O)c1ccc(-c2cnc(N)c(-c3nnc(-c4cccc(CN)c4)o3)n2)cc1` [IA-220, 3-[5-[3-(aminomethyl)phenyl]-1,3,4-oxadiazol-2-yl]-5-(4-isopropylsulfonylphenyl)pyrazin-2-amine], for which the Ki was at most 10 nM. Turning to `CN1CCN(C(=O)c2ccc(-c3cnc(N)c(C(=O)Nc4ccccc4)n3)cc2)CC1` [Compound I-73, 3-amino-6-(4-(4-methylpiperazine-1-carbonyl)phenyl)-N-phenylpyrazine-2-carboxamide], the Ki is 10 to 100 nM. In the case of `N#Cc1cccc(-c2cnc(N)c(C(=O)Nc3ccccc3)n2)c1` [Compound I-10, 3-amino-6-(3-cyanophenyl)-N-phenylpyrazine-2-carboxamide], the Ki lay in the range of 100 to 5000 nM. As for `CC(=O)Nc1cccc(NC(=O)c2nc(-c3cccnc3)cnc2N)c1` [Compound I-95, 3-amino-N-(3-ethanamidophenyl)-6-(pyridin-3-yl)pyrazine-2-carboxamide], the figure is 100 to 5000 nM; as for `Cc1cccc2nc(-c3nc(-c4ccc(S(C)(=O)=O)cc4)cnc3N)[nH]c12` [Compound I-119, 3-(7-methyl-1H-benzo[d]imidazol-2-yl)-5-(4-(methylsulfonyl)phenyl) pyrazin-2-amine], 10 to 100 nM. In the case of `CCNCc1ccc(-c2nnc(-c3nc(-c4ccc(S(=O)(=O)C(C)C)cc4)cnc3N)o2)cc1` [IA-122, 3-[5-[4-(ethylaminomethyl)phenyl]-1,3,4-oxadiazol-2-yl]-5-(4-isopropylsulfonylphenyl)pyrazin-2-amine], the inhibition constant Ki is at most 10 nM. As for `Nc1ncc(-c2cccc(CO)c2)nc1-c1nnc(-c2ccccc2)o1` [IA-202, [3-[5-amino-6-(5-phenyl-1,3,4-oxadiazol-2-yl)pyrazin-2-yl]phenyl]methanol], the figure is 100 to 5000 nM; as for `CCCCOC(=O)c1nnc(-c2nc(-c3ccc(S(=O)(=O)C(C)C)cc3)cnc2N)o1` [IA-113, butyl 5-[3-amino-6-(4-isopropylsulfonylphenyl)pyrazin-2-yl]-1,3,4-oxadiazole-2-carboxylate], 10 to 100 nM.
